Laboratory results reported in US20240307220A1, “Combination Therapy to Treat Temperature Sensitive Mutant Tumors” (H. LEE MOFFITT CANCER CENTER AND RESEARCH INSTITUTE INC., priority 2021, published 2024).

Tests used:
[1] = test system: H1299 cells stably expressing p53 ts mutants; experiment: Western blot of p53 target gene induction in H1299 stably expressing ts p53 mutants, with CPT; type: cell-based, human
Method: (§1) FIGS. 1B and 1C show representative p53 ts mutants stably expressed in H1299 cells tested for induction of target gene expression after 20 hrs at 32° C. CPT (0.5 μM for 20 hrs) was added when cells were shifted to 32° C. […] P53 binding to PUMA promoter was determined by ChIP. The results are average of 3 experiments (mean±SD).
FIGS. 10A to 10F show induction of endogenous targets by ts p53 mutants. P53 ts mutants were stably expressed in H1299 cells using lentivirus vector. Cells were tested for induction of target gene expression after 20 hrs at 32° C. by Western blot. CPT (0.5 μM for 20 hrs) was added when cells were shifted to 32° C. A138V was used as a benchmark to facilitate comparison between gels.
Western blot. Cells were lysed in lysis buffer (50 mM Tris-HCl pH 8.0, 5 mM EDTA, 150 mM NaCl, 0.5% Nonidet P-40, 1×protease inhibitor cocktail) and centrifuged for 10 minutes at 14,000×g, and the insoluble debris was discarded. Cell lysate (10-50 µg of protein) was fractionated by SDS-PAGE and transferred to Immobilion P filters (Millipore). The filter was blocked for 1 hr with phosphate buffered saline (PBS) containing 5% non-fat dry milk and 0.1% Tween 20, incubated with primary and secondary antibodies, and the filter was developed using SuperSignal reagent (Thermo Scientific). MDM2 was detected using monoclonal antibody 3G9 produced in house. Other markers were detected using commercial antibodies: Actin (Sigma A5441), p53-DO1 (BD Pharmingen #554293), p21 (BD Pharmingen #556430), PUMA (CellSignaling #12450), PARP (BD Pharmingen #556362), p53 pSer15 (CellSignaling #9284), p53 acetyl-Lys382 (CellSignaling #2525).
Validation of ts p53 mutants from cancer. We selected 17 most frequently observed ts mutants for validation in p53-null H1299 cells. These ts mutants together represent 9.6% (2,358/24,679) of tumors with p53 missense mutations (Table 3), or 64% (2,358/3,658) of tumors with ts p53 mutations. The ability of these mutants to activate the p21 and PUMA promoters at 32° C. were confirmed in reporter assays after transient expression (FIG. 2A, FIG. 8A-8C). […]

[2] = test system: P53 binding to PUMA promoter; experiment: ChIP of p53 binding to PUMA promoter in H1299 stably expressing p53 mutants; type: cell-based, human; conditions: 0.5 μM CPT at 32° C. for 20 hrs
Method: as §1
Chromatin immunoprecipitation (ChIP). ChIP assay was performed using standard procedure. Crosslinked p53-DNA complexes were immunoprecipitated with DO-1 antibody. Samples were subjected to SYBR Green real-time PCR analysis using forward and reverse primers for the p53 binding sites in the p21 promoter ([…] (SEQ ID NO:7) and […] (SEQ ID NO:8)), and PUMA promoter ([…] (SEQ ID NO:9) and […] (SEQ ID NO:10)).

GA10-p53KO tumors = experiment: GA10-p53KO subcutaneous tumor xenografts in nude mice treated with CPT and hypothermia; type: in vivo; conditions: 32 hr×5 format
Method: FIGS. 7A to 7E show hypothermia cooperates with chemotherapy to induce regression of tumors expressing ts p53. […] CPT (1.5 mg/kg) was given at the beginning of each hypothermia cycle. Average size of tumors was plotted over time (mean±SD). FIG. 7B contains pictures of a GA10 partial response tumor before and after treatment. FIG. 7C is a waterfall plot showing combined results of 3 experiments. Tumors with durable remission are marked as “cured”. FIG. 7D contains individual growth curves of representative GA10 tumors from FIG. 7A that achieved durable remission after treatment. FIG. 7E contains individual growth curves of GA10 tumors from FIG. 7A that relapsed and received re-treatment.
Animal experiment. Animal experiments were reviewed and approved by the University of South Florida IACUC. Athymic female nude mice (6-week old, Athymic Nude-Foxn1nu, Envigo) were injected subcutaneously with 0.1 ml 1:1 slurry of Matrigel (VWR 47743-715) and 1×10^7 cells in PBS at each site. The inoculated mice were housed in a cabinet set to 28° C. (ARIA BIO-C36 ventilated cabinet, TECNIPLAST) to ensure that tumors develop at ˜37° C. […] The mice were kept in the 28° C. cabinet and monitored using infrared thermal imaging camera (FLIR ONE Pro, FLIR® Systems, Inc.) to verify that body temperature was maintained at ˜32° C. […]

CC[C@@]1(O)C(=O)OCc2c1cc1n(c2=O)Cc2cc3ccccc3nc2-1 [CPT, Camptothecin]
ts p53 Ser15 phosphorylation and K382 acetylation ([1]; CPT 0.5 μM for 20 hrs at 32° C., Western blot): stimulated | PUMA expression in the absence of p53 ([1]; H1299 without p53, CPT 0.5 μM for 20 hrs): modestly stimulated PUMA expression | induction of endogenous PUMA ([1]; stably transfected H1299 with ts mutants, CPT 0.5 μM for 20 hrs at 32° C., Western blot): could be stimulated | PUMA promoter binding by the ts mutants (ChIP) [2]: further stimulated the binding | GA10-p53KO complete response or durable remission (GA10-p53KO tumors; CPT 1.5 mg/kg and 32° C. hypothermia): did not achieve complete response or durable remission | GA10-p53KO tumor size change (GA10-p53KO tumors; p53-independent effects of CPT and hypothermia): modest shrinkage
